Values joined by “and” are separate entries in the source; they are usually repeats but may differ in a detail not shown here. Equal values may be shown once. Inconclusive results and toxic doses are left out.
System: P388 leukemia ip, CD2F1 mice, survival T/C
Experiment: NCI In Vivo Anticancer Drug Screen. Data for tumor model P388 Leukemia (intraperitoneal) in CD2F1 (CDF1) mice
Settings: endpoint: median survival time, higher = longer survival
How it was run: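 Mice carrying the transplanted tumor received test compound or vehicle. Survival was recorded in each group, and the value is the treated-group measurement divided by that of the vehicle-treated control group.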

[1] = dose: 25.0 mg/kg/injection, schedule: Q01DX009 (ip), vehicle: saline with Tween-80
[2] = dose: 50.0 mg/kg/injection, schedule: Q01DX009 (ip), vehicle: saline with Tween-80
[3] = dose: 100.0 mg/kg/injection, schedule: Q01DX009 (ip), vehicle: saline with Tween-80
[4] = dose: 200.0 mg/kg/injection, schedule: Q01DX009 (ip), vehicle: saline with Tween-80
[5] = dose: 12.5 mg/kg/injection, schedule: Q01DX009 (ip), vehicle: saline
[6] = dose: 25.0 mg/kg/injection, schedule: Q01DX009 (ip), vehicle: saline
[7] = dose: 50.0 mg/kg/injection, schedule: Q01DX009 (ip), vehicle: saline
[8] = dose: 100.0 mg/kg/injection, schedule: Q01DX009 (ip), vehicle: saline
[9] = dose: 200.0 mg/kg/injection, schedule: Q01DX009 (ip), vehicle: saline
[10] = dose: 50.0 mg/kg/injection, schedule: Q01DX005 (ip), vehicle: Klucel (hydroxypropylcellulose) (HPC)
[11] = dose: 100.0 mg/kg/injection, schedule: Q01DX005 (ip), vehicle: Klucel (hydroxypropylcellulose) (HPC)
[12] = dose: 200.0 mg/kg/injection, schedule: Q01DX005 (ip), vehicle: Klucel (hydroxypropylcellulose) (HPC)
[13] = dose: 50.0 mg/kg/injection, schedule: Q01DX009 (ip), vehicle: Klucel (hydroxypropylcellulose) (HPC)
[14] = dose: 100.0 mg/kg/injection, schedule: Q01DX009 (ip), vehicle: Klucel (hydroxypropylcellulose) (HPC)
[15] = dose: 200.0 mg/kg/injection, schedule: Q01DX009 (ip), vehicle: Klucel (hydroxypropylcellulose) (HPC)
[16] = dose: 50.0 mg/kg/injection, schedule: Q04DX003 (ip), vehicle: saline with Tween-80
[17] = dose: 100.0 mg/kg/injection, schedule: Q04DX003 (ip), vehicle: saline with Tween-80
[18] = dose: 200.0 mg/kg/injection, schedule: Q04DX003 (ip), vehicle: saline with Tween-80
[19] = dose: 60.0 mg/kg/injection, schedule: Q01DX005 (ip), vehicle: saline with Tween-80
[20] = dose: 120.0 mg/kg/injection, schedule: Q01DX005 (ip), vehicle: saline with Tween-80
[21] = dose: 240.0 mg/kg/injection, schedule: Q01DX005 (ip), vehicle: saline with Tween-80
[22] = dose: 100.0 mg/kg/injection, schedule: Q01DX005 (ip), vehicle: saline with Tween-80
[23] = dose: 200.0 mg/kg/injection, schedule: Q01DX005 (ip), vehicle: saline with Tween-80

CCCCOC(=O)c1c2nc3c(C(=O)OCCCC)ccc(C)c3oc-2c(C)c(=O)c1NC(C)=O
T/C (dose: 100.0 mg/kg/injection, schedule: Q04DX003 (ip), vehicle: Klucel (hydroxypropylcellulose) (HPC)): 87 % of control
T/C (dose: 200.0 mg/kg/injection, schedule: Q04DX003 (ip), vehicle: Klucel (hydroxypropylcellulose) (HPC)): 90 % of control
T/C (dose: 400.0 mg/kg/injection, schedule: Q04DX003 (ip), vehicle: Klucel (hydroxypropylcellulose) (HPC)): 89 % of control

CCOC(=O)c1ccc(NC(=O)Nc2nncs2)cc1
T/C (dose: 6.25 mg/kg/injection, schedule: Q01DX009 (ip), vehicle: distilled water + Tween-80): 114 % of control
T/C (dose: 12.5 mg/kg/injection, schedule: Q01DX009 (ip), vehicle: distilled water + Tween-80): 119 % of control

O=C(O)Cc1ccccc1C(=O)O.[Pb]
T/C [1]: 90 % of control
T/C [2]: 104 % of control
T/C [3]: 86 % of control

O=[N+]([O-])O.O=[N+]([O-])O.[Cu].c1cnc2c(c1)ccc1cccnc12
T/C (dose: 1.56 mg/kg/injection, schedule: Q04DX002 (ip), vehicle: saline): 101 % of control
T/C (dose: 6.25 mg/kg/injection, schedule: Q04DX002 (ip), vehicle: saline): 99 % of control and 106 % of control

Nc1ncnc2c1ncn2C1OC(CO)C2OC(=S)OC21 (stereo not drawn)
T/C [1]: 96 % of control
T/C [2]: 101 % of control
T/C [3]: 100 % of control
T/C [4]: 100 % of control

O=C(Oc1ccc[nH]c1=O)C1CC1
T/C [5]: 99 % of control and 100 % of control
T/C [6]: 101 % of control and 102 % of control
T/C [7]: 98 % of control and 108 % of control
T/C [8]: 103 % of control and 106 % of control
T/C [9]: 107 % of control and 117 % of control
T/C (dose: 400.0 mg/kg/injection, schedule: Q01DX009 (ip), vehicle: saline): 100 % of control

O=c1cc(-c2ccccc2)oc2c1CCCC2
T/C [10]: 101 % of control
T/C [11]: 97 % of control
T/C [12]: 101 % of control

CC(=O)OC1CN(c2ccc(Br)cc2)CC(OC(C)=O)CN(c2ccc(Br)cc2)C1 (stereo not drawn)
T/C [13]: 99 % of control
T/C [14]: 100 % of control
T/C [15]: 97 % of control

CC1(Cc2c[nH]c(=O)[nH]c2=O)C(=O)NC(=O)NC1=O
T/C [13]: 105 % of control
T/C [14]: 100 % of control
T/C [15]: 98 % of control

CSC(=C[N+](=O)[O-])SC
T/C (dose: 3.13 mg/kg/injection, schedule: Q01DX009 (ip), vehicle: water): 100 % of control
T/C (dose: 6.25 mg/kg/injection, schedule: Q01DX009 (ip), vehicle: water): 105 % of control
T/C (dose: 12.5 mg/kg/injection, schedule: Q01DX009 (ip), vehicle: water): 96 % of control
T/C (dose: 25.0 mg/kg/injection, schedule: Q01DX009 (ip), vehicle: water): 104 % of control

O=C(O)CCN(Cl)Cl
T/C (dose: 60.0 mg/kg/injection, schedule: Q01DX005 (ip), vehicle: saline): 98 % of control
T/C (dose: 120.0 mg/kg/injection, schedule: Q01DX005 (ip), vehicle: saline): 104 % of control
T/C (dose: 240.0 mg/kg/injection, schedule: Q01DX005 (ip), vehicle: saline): 95 % of control

CCCCCCCCCCCCCCC[N+]1([O-])CCCCC1
T/C [5]: 101 % of control
T/C [6]: 95 % of control
T/C [7]: 99 % of control and 101 % of control

CCCCN(C(=O)C(C)C)c1nc(C)co1
T/C [2]: 112 % of control
T/C [3]: 118 % of control
T/C [4]: 96 % of control

c1ccc(NC2=NCCO2)nc1
T/C [16]: 100 % of control
T/C [17]: 95 % of control
T/C [18]: 100 % of control

CC1(C)CC(=NNC(N)=S)CC(C)(C)N1
T/C [7]: 94 % of control
T/C [8]: 97 % of control
T/C [9]: 99 % of control

CCNC1(c2ccccc2)CCCCC1
T/C (dose: 6.25 mg/kg/injection, schedule: Q04DX003 (ip), vehicle: saline): 121 % of control
T/C (dose: 12.5 mg/kg/injection, schedule: Q04DX003 (ip), vehicle: saline): 106 % of control
T/C (dose: 25.0 mg/kg/injection, schedule: Q04DX003 (ip), vehicle: saline): 104 % of control

COc1cccc(OCC(=O)O)c1OC
T/C (dose: 100.0 mg/kg/injection, schedule: Q01DX001 (ip), vehicle: Klucel (hydroxypropylcellulose) (HPC)): 98 % of control
T/C (dose: 200.0 mg/kg/injection, schedule: Q01DX001 (ip), vehicle: Klucel (hydroxypropylcellulose) (HPC)): 97 % of control

COc1ccc(C=NCCN=Cc2ccc(OC)cc2)cc1
T/C (dose: 25.0 mg/kg/injection, schedule: Q04DX003 (ip), vehicle: saline with Tween-80): 100 % of control
T/C [16]: 109 % of control
T/C [17]: 108 % of control
T/C [18]: 110 % of control

CSC(=Nc1ccc(N(C)C)cc1)NC#N
T/C [13]: 106 % of control
T/C [14]: 103 % of control
T/C [15]: 92 % of control

COc1ccc(CC2c3cc4c(cc3CCN2C)OCO4)c(/C=C\c2ccccc2)c1OC (stereo not drawn)
T/C (dose: 6.25 mg/kg/injection, schedule: Q01DX001 (ip), vehicle: saline + alcohol): 92 % of control
T/C (dose: 12.5 mg/kg/injection, schedule: Q01DX001 (ip), vehicle: saline + alcohol): 93 % of control
T/C (dose: 25.0 mg/kg/injection, schedule: Q01DX001 (ip), vehicle: saline + alcohol): 90 % of control
T/C (dose: 200.0 mg/kg/injection, schedule: Q01DX001 (ip), vehicle: saline + alcohol): 87 % of control

OCCN1CCSC1=S
T/C [2]: 95 % of control
T/C [3]: 90 % of control
T/C [4]: 100 % of control

CN1C(=O)N(C)C2(C(=O)N(C)C(=S)N2C)N(C)C1=O
T/C [19]: 95 % of control
T/C [20]: 103 % of control
T/C [21]: 102 % of control

COC(=O)C1=C(\N2CCCC2)CC(C)(C)CC(=O)/C=C\1C(=O)OC
T/C [10]: 92 % of control
T/C [11]: 93 % of control
T/C [12]: 104 % of control

Cn1nnc2c(C(N)=O)ncn2c1=O
T/C (dose: 25.0 mg/kg/injection, schedule: Q01DX005 (ip), vehicle: saline with Tween-80): 118 % of control
T/C (dose: 25.0 mg/kg/injection, schedule: Q01DX005 (ip), vehicle: saline): 119 % of control and 121 % of control
T/C [22]: 189 % of control
T/C (dose: 100.0 mg/kg/injection, schedule: Q01DX005 (ip), vehicle: saline): 164 % of control and 217 % of control
T/C [23]: 254 % of control
T/C (dose: 200.0 mg/kg/injection, schedule: Q01DX005 (ip), vehicle: saline): 225 % of control and 87 % of control

COc1ccc(Cl)c(C)c1C(=O)OC1CC(OC2C(O)CC(OC3CCCC4C3C=CC3CCCC/C=C/C5C=C(C(=O)O)C(C)CC56OC(=O)C(=C6O)OC(=O)C34C)OC2C)OC(C)C1O (stereo not drawn)
T/C (dose: 25.0 mg/kg/injection, schedule: Q01DX009 (ip), vehicle: Klucel (hydroxypropylcellulose) (HPC)): 103 % of control
T/C [13]: 97 % of control
T/C [14]: 89 % of control

Nc1nc2nc(CBr)c(CBr)nc2c(=O)[nH]1
T/C [1]: 115 % of control
T/C [2]: 118 % of control
T/C [3]: 122 % of control
T/C [4]: 100 % of control

COC(=O)Nc1cn2c(n1)sc1ccccc12
T/C (dose: 100.0 mg/kg/injection, schedule: Q01DX001 (ip), vehicle: saline with Tween-80): 100 % of control
T/C (dose: 200.0 mg/kg/injection, schedule: Q01DX001 (ip), vehicle: saline with Tween-80): 96 % of control
T/C (dose: 400.0 mg/kg/injection, schedule: Q01DX001 (ip), vehicle: saline with Tween-80): 91 % of control

CCOC(=O)C1NC(=O)C(C)NC1=O (stereo not drawn)
T/C (dose: 60.0 mg/kg/injection, schedule: Q01DX005 (ip), vehicle: Klucel (hydroxypropylcellulose) (HPC)): 103 % of control
T/C (dose: 120.0 mg/kg/injection, schedule: Q01DX005 (ip), vehicle: Klucel (hydroxypropylcellulose) (HPC)): 107 % of control
T/C (dose: 240.0 mg/kg/injection, schedule: Q01DX005 (ip), vehicle: Klucel (hydroxypropylcellulose) (HPC)): 100 % of control

CC(=O)[C-](Cl)C(C)=O.CC(=O)[C-](Cl)C(C)=O.CC(=O)[C-](Cl)C(C)=O.[Ru+3]
T/C [19]: 111 % of control
T/C [20]: 109 % of control
T/C [21]: 98 % of control

COC(=O)C1=[N+]([O-])OC(C(=O)OC)C1c1ccc(NC(C)=O)cc1 (stereo not drawn)
T/C (dose: 50.0 mg/kg/injection, schedule: Q01DX005 (ip), vehicle: saline with Tween-80): 98 % of control
T/C [22]: 93 % of control
T/C [23]: 90 % of control

From PubChem BioAssay AID330 (DTP/NCI, 2004)
